Measurements published in EPA's ToxValDB 9.5.
Several values for one entry are separate records, joined by “and”; a condition that tells them apart may be missing. Equal entries are not always repeated.

What was measured:
Rattus norvegicus [1] = conditions: for LC50 / LD50: acute
Oryctolagus sp. = conditions: for LD50: acute, dermal
Mus musculus [2] = conditions: acute
Rattus norvegicus [3] = conditions: for LOAEL: M/F
Mus musculus [4] = conditions: B6C3F1; for LOAEL: M/F
Rattus norvegicus [5] = conditions: M/F
Rattus norvegicus [6] = conditions: subchronic, oral, gavage, Sprague-Dawley
Rattus norvegicus [7] = conditions: Hershberger; duration: 10 days; oral; gavage; Sprague-Dawley; active + Negative + Antiandrogenic + anti-androgenic
[8] = developmental, duration: 10 days, oral, gavage, Sprague-Dawley
[9] = subchronic, duration: 30 days, oral, diet, Sprague-Dawley
[10] = subchronic, oral, gavage, epithelial hyperplasia of the forestomach
[11] = developmental, oral, reduced pup weanling weight

With O=C(Cl)CCl [Chloroacetyl chloride] as the compound, how does the LC50 (Rattus norvegicus [1]; inhalation, Fischer 344) read?
Its LC50 is 3050 mg/m3.

What about the LD50 (Rattus norvegicus [1]; oral) of the same compound?
Its LD50 is ≥ 1260 mg/kg and ≤ 2500 mg/kg.

And the LD50 (Rattus norvegicus [1]; oral, Sprague-Dawley)?
The LD50 was 207 mg/kg.

And the LOAEL (Rattus norvegicus [1]; short-term, duration: 4 weeks, inhalation, Fischer 344)?
Its LOAEL is 2.31 mg/m3.

What about the LD50 (Oryctolagus sp.; semiocclusive, New Zealand) of the same compound?
Its LD50 is ≥ 316 mg/kg and ≤ 501 mg/kg.

What about the LC50 (Mus musculus [2]; inhalation) of the same compound?
Its LC50 is 11100 mg/m3.

What does the source list for CCCCCN(CCCCC)C(=S)[S][Sb]([S]C(=S)N(CCCCC)CCCCC)[S]C(=S)N(CCCCC)CCCCC [Antimony diamyldithiocarbamate]?
LD50 (Rattus norvegicus [1]; oral, gavage): 16400 mg/kg; LD50 (Oryctolagus sp.; occlusive): 16000 mg/kg

Which LOAEL (Rattus norvegicus [3]; short-term, duration: 14 days, oral, diet, Wistar, renal) does the source give for ClC(Cl)=C(Cl)C(Cl)=C(Cl)Cl [Hexachloro-1,3-butadiene] here?
Its LOAEL is 5.9 mg/kg-day.

And the NOAEL (Mus musculus [4]; subchronic, duration: 13 weeks, oral, diet, F, renal)?
The NOAEL was 0.2 mg/kg-day.

Which LD50 (Rattus norvegicus [1]; oral, gavage, Spartan) does the source give for CC(C)(c1ccc(Oc2ccc3c(c2)C(=O)OC3=O)cc1)c1ccc(Oc2ccc3c(c2)C(=O)OC3=O)cc1 [4,4'-(4,4'-Isopropylidenediphenoxy)bisphthalic dianhydride] here?
The LD50 was over 5000 mg/kg.

What about the LD50 (Rattus norvegicus [1]; oral, gavage, Sprague-Dawley) of the same compound?
The LD50 was over 5000 mg/kg.

And the NOAEL (Rattus norvegicus [1]; [8])?
Its NOAEL is over 1000 mg/kg-day.

What about the NOAEL (Rattus norvegicus [1]; reproduction developmental, oral, gavage, Sprague-Dawley) of the same compound?
The NOAEL was over 1000 mg/kg-day.

What about the NOAEL (Rattus norvegicus [1]; reproduction developmental, oral, gavage, Sprague-Dawley, generation: F1) of the same compound?
The NOAEL was over 1000 mg/kg-day.

What about the “LOAEL (% diet)” value (Rattus norvegicus [1]; [9]) of the same compound?
The value was over 4.

What about the “NOAEL (% diet)” value (Rattus norvegicus [1]; [9]) of the same compound?
The value was 4.

What about the LD50 (Oryctolagus sp.; New Zealand) of the same compound?
The LD50 was over 2000 mg/kg.

And the LD50 (Oryctolagus sp.; occlusive, New Zealand)?
The LD50 was over 2000 mg/kg.

Which results are given for CC(C)(N)CO [2-Amino-2-methylpropan-1-ol]?
LOAEL (Rattus norvegicus [1]; subchronic, duration: 3 months, oral, diet, Sprague-Dawley): 240 mg/kg-day; LD50 (Oryctolagus sp.; occlusive): > 2000 mg/kg; LD50 (Mus musculus [2]; oral, gavage): 3350 mg/kg

How did the LD50 (Rattus norvegicus [1]; dermal) turn out when CCOC(=O)CCl [Ethyl chloroacetate] was run?
Its LD50 is 161 mg/kg.

And the LD50 (Oryctolagus sp.)?
The LD50 was 335 mg/kg and 230 mg/kg.

What about the LD50 (Oryctolagus sp.; occlusive, New Zealand) of the same compound?
The LD50 was 255 mg/kg.

What about the LD50 (Mus musculus [2]; injection, subcutaneous) of the same compound?
Its LD50 is 250 mg/kg.

And the LD50 (Mus musculus [2]; oral)?
The LD50 was 350 mg/kg.

Which LOAEL (Rattus norvegicus [3]; short-term, duration: 6 weeks, oral, diet, Wistar, immunological) does the source give for CCC[CH2][Sn]([Cl])([Cl])[CH2]CCC [Dibutyltin dichloride] here?
Its LOAEL is 5 mg/kg-day.

CCCBr [1-Bromopropane] was tested. Which NOAEL (Rattus norvegicus [3]; short-term, duration: 3 weeks, inhalation, whole body, M, F-344, neurological) did it give?
Its NOAEL is 50.3 mg/m3.

Which results are given for CN1C(=O)c2ccc(Oc3ccc(C(C)(C)c4ccc(Oc5ccc6c(c5)C(=O)N(C)C6=O)cc4)cc3)cc2C1=O?
NOAEL (Rattus norvegicus [1]; [8]): > 1000 mg/kg-day; NOAEL (Rattus norvegicus [1]; reproduction developmental, duration: 4 weeks, oral, gavage, Sprague-Dawley, generation: F0): > 1000 mg/kg-day; NOAEL (Rattus norvegicus [1]; reproduction developmental, duration: 4 weeks, oral, gavage, Sprague-Dawley, generation: F1): > 1000 mg/kg-day; NOAEL (Rattus norvegicus [1]; reproduction developmental, duration: 10 days, oral, gavage, Crl:CD(SD) BR): > 1000 mg/kg-day; LOAEL (% diet) (Rattus norvegicus [1]; [9]): > 4; NOAEL (Rattus norvegicus [1]; [9]): ≥ 2750 mg/kg-day and ≤ 3160 mg/kg-day; NOAEL (% diet) (Rattus norvegicus [1]; [9]): 4; NOAEC (Oryctolagus sp.; developmental, duration: 12 days, oral, gavage, New Zealand): > 1000 mg/kg-day; NOAEL (Oryctolagus sp.; reproduction developmental, duration: 12 days, oral, gavage, F, New Zealand): > 1000 mg/kg-day; NOAEC (Oryctolagus sp.; reproduction developmental, duration: 13 days, oral, gavage, F, New Zealand): > 1000 mg/kg-day; NOAEC (Oryctolagus sp.; reproduction developmental, duration: 13 days, oral, gavage, New Zealand): > 1000 mg/kg-day

What does the source list for Cc1ccc(OP(=O)(Oc2ccc(C)cc2C)Oc2ccc(C)cc2C)c(C)c1 [Trixylyl phosphate]?
LD50 (Rattus norvegicus [1]; oral, gavage, Sprague-Dawley): > 20000 mg/kg; LD50 (Oryctolagus sp.; New Zealand): > 2000 mg/kg

What does the source list for CBr [Methyl bromide]?
LOAEL (Rattus norvegicus [3]; chronic, duration: 129 weeks, inhalation, Wistar, respiratory): 12 mg/m3; LOAEL (Mus musculus [4]; subchronic, duration: 13 weeks, inhalation, neurological): 38.8 mg/m3; LOAEL (Rattus norvegicus [5]; chronic, duration: 29 months, inhalation, degenerative and proliferative lesions of the olfactory epithelium of the nasal cavity): 11.7 mg/m3; LOAEL (Rattus norvegicus [5]; [10]): 7.1 mg/kg-day; NOAEL (Rattus norvegicus [5]; [10]): 1.4 mg/kg-day

How did the LOAEL (Mus musculus [4]; chronic, duration: 81 weeks, oral, respiratory) turn out when Cc1cccc2ccccc12 [1-Methylnaphthalene] was run?
The LOAEL was 71.6 mg/kg-day.

What about the NOEL (Rattus norvegicus [6]; M, Absolute Organ Weight: Liver increase + Relative Organ Weight: Liver increase) of the same compound?
The NOEL was 50 mg/kg-day.

Which results are given for ClCCOCCCl [Bis(chloroethyl) ether]?
LOAEL (Rattus norvegicus [3]; chronic, duration: 130 days, inhalation, body weight): 404 mg/m3; NOEL (Rattus norvegicus [6]): 15 mg/kg-day

What does the source list for CC(C)CCC(C)Nc1ccc(NC(C)CCC(C)C)cc1 (configuration not stated) [N,N'-Bis(1,4-dimethylpentyl)-4-phenylenediamine]?
LC50 (Rattus norvegicus [1]; inhalation): > 400 mg/m3; LD50 (Rattus norvegicus [1]; oral, gavage, Sprague-Dawley): 730 mg/kg; LOAEL (Rattus norvegicus [1]; chronic, duration: 22 weeks, inhalation): 100 mg/m3; NOAEL (Rattus norvegicus [1]; developmental, duration: 10 days, oral, gavage, Charles River CD Albino): 150 mg/kg-day; NOAEL (Rattus norvegicus [1]; reproduction developmental, duration: 23 weeks, oral, diet, generation: F0): 30 ppm; NOAEL (Rattus norvegicus [1]; reproduction developmental, duration: 23 weeks, oral, diet, generation: F1): 30 ppm; NOAEL (Rattus norvegicus [1]; reproduction developmental, duration: 23 weeks, oral, diet, generation: F2): 30 ppm; NOAEL (Rattus norvegicus [1]; reproduction developmental, duration: 10 days, oral, gavage, F, Charles River CD Albino): 25 mg/kg-day; NOAEL (Rattus norvegicus [1]; subchronic, duration: 30 days, oral, diet, F, Sprague-Dawley): 28.8 mg/kg-day; NOAEL (Rattus norvegicus [1]; subchronic, duration: 30 days, oral, diet, M, Sprague-Dawley): 9.6 mg/kg-day; NOAEL (Rattus norvegicus [1]; subchronic, duration: 90 days, oral, diet, M, Sprague-Dawley): 9.6 mg/kg-day; LD50 (Oryctolagus sp.; occlusive, New Zealand): > 3160 mg/kg

For CCCCNC(=O)n1c(NC(=O)OC)nc2ccccc21 [Benomyl], which LEL (Rattus norvegicus [5]; [11]) is on record?
Its LEL is 25 mg/kg-day.

And the NOEL (Rattus norvegicus [5]; [11])?
The NOEL was 5 mg/kg-day.

What about the LOEL (Rattus norvegicus [7]) of the same compound?
Its LOEL is 1000 mg/kg-day.

And the NOEL (Rattus norvegicus [7])?
The NOEL was 300 mg/kg-day.

CC(C)CCCCCCCOP(OCCCCCCCC(C)C)OCCCCCCCC(C)C [Isodecyl phosphite] was tested. Which LC50 (Rattus norvegicus [1]; Inhalation, Sherman Wistar) did it give?
Its LC50 is over 12.6 mg/L.

What about the LD50 (Rattus norvegicus [1]; oral, gavage, Sherman Wistar) of the same compound?
The LD50 was over 5000 mg/kg.

And the NOAEL (Rattus norvegicus [1]; reproduction developmental, duration: 8 weeks, oral, gavage, Sprague-Dawley, generation: F0)?
Its NOAEL is at least 1000 mg/kg-day.

And the NOAEL (Rattus norvegicus [1]; reproduction developmental, duration: 8 weeks, oral, gavage, Sprague-Dawley, generation: F1)?
Its NOAEL is at least 1000 mg/kg-day.

And the LD50 (Oryctolagus sp.; New Zealand)?
The LD50 was over 5000 mg/kg.
